Here are results for 17 compounds from BindingDB's records for doi:10.1021/jm00022a011 (Upjohn Laboratories, 1995).

Molecules are shown by their SMILES.

One test relates to HIV-I infected H9 cells (antiviral activity). In words: Antiviral activity against HIV-I infected H9 cells.
With `CCNC(=O)Nc1cccc(C(c2c(O)c3c(oc2=O)CCCCCC3)C2CC2)c1` (configuration not stated) [1-{3-[Cyclopropyl-(4-hydroxy-2-oxo-5,6,7,8,9,10-hexahydro-2H-cycloocta[b]pyran-3-yl)-methyl]-phenyl}-3-ethyl-urea], the IC50 is greater than 60 µM.

The compound `O=C(Nc1ccccc1)Nc1cccc(C(c2c(O)c3c(oc2=O)CCCCCC3)C2CC2)c1` (configuration not stated) [1-{3-[Cyclopropyl-(4-hydroxy-2-oxo-5,6,7,8,9,10-hexahydro-2H-cycloocta[b]pyran-3-yl)-methyl]-phenyl}-3-phenyl-urea] showed an IC50 of 21.7 µM.

The compound `CCCC1CCCCCCc2c1oc(=O)c(C(c1ccccc1)C1CC1)c2O` (configuration not stated) [3-(Cyclopropyl-phenyl-methyl)-4-hydroxy-11-propyl-6,7,8,9,10,11-hexahydro-5H-cyclonona[b]pyran-2-one] registered an IC50 of 5.3 µM.

As for `CC(C)(C)OC(=O)NCCC(=O)Nc1cccc(C(c2c(O)c3c(oc2=O)CCCCCC3)C2CC2)c1` (configuration not stated) [(2-{3-[Cyclopropyl-(4-hydroxy-2-oxo-5,6,7,8,9,10-hexahydro-2H-cycloocta[b]pyran-3-yl)-methyl]-phenylcarbamoyl}-ethyl)-carbamic acid tert-butyl ester], the IC50 was found to be 33.4 µM.

`CC(C)(C)OC(=O)NCCCC(=O)Nc1cccc(C(c2c(O)c3c(oc2=O)CCCCCC3)C2CC2)c1` (configuration not stated) [(3-{3-[Cyclopropyl-(4-hydroxy-2-oxo-5,6,7,8,9,10-hexahydro-2H-cycloocta[b]pyran-3-yl)-methyl]-phenylcarbamoyl}-propyl)-carbamic acid tert-butyl ester] gave an IC50 of 49.5 µM.

Consider `C[C@@H](NC(=O)OC(C)(C)C)C(=O)Nc1cccc(C(c2c(O)c3c(oc2=O)CCCCCC3)C2CC2)c1` (stereo partly drawn) [((R)-1-{3-[Cyclopropyl-(4-hydroxy-2-oxo-5,6,7,8,9,10-hexahydro-2H-cycloocta[b]pyran-3-yl)-methyl]-phenylcarbamoyl}-ethyl)-carbamic acid tert-butyl ester], for which the IC50 was greater than 60 µM.

The compound `C[C@H](NC(=O)OC(C)(C)C)C(=O)Nc1cccc(C(c2c(O)c3c(oc2=O)CCCCCC3)C2CC2)c1` (stereo partly drawn) [((S)-1-{3-[Cyclopropyl-(4-hydroxy-2-oxo-5,6,7,8,9,10-hexahydro-2H-cycloocta[b]pyran-3-yl)-methyl]-phenylcarbamoyl}-ethyl)-carbamic acid tert-butyl ester] gave an IC50 of 31.8 µM.

`O=C(C=Cc1ccccc1)Nc1cccc(C(c2c(O)c3c(oc2=O)CCCCCC3)C2CC2)c1` (configuration not stated) [(E)-N-{3-[Cyclopropyl-(4-hydroxy-2-oxo-5,6,7,8,9,10-hexahydro-2H-cycloocta[b]pyran-3-yl)-methyl]-phenyl}-3-phenyl-acrylamide] returned an IC50 of 17.1 µM.

With `CC(C)(C)OC(=O)N1CCC[C@H]1C(=O)Nc1cccc(C(c2c(O)c3c(oc2=O)CCCCCC3)C2CC2)c1` (stereo partly drawn) [(S)-2-{3-[Cyclopropyl-(4-hydroxy-2-oxo-5,6,7,8,9,10-hexahydro-2H-cycloocta[b]pyran-3-yl)-methyl]-phenylcarbamoyl}-pyrrolidine-1-carboxylic acid tert-butyl ester], half-maximal inhibition (IC50) required 29.2 µM.

`CC(C)(C)OC(=O)NCC(=O)Nc1cccc(C(c2c(O)c3c(oc2=O)CCCCCC3)C2CC2)c1` (configuration not stated) [({3-[Cyclopropyl-(4-hydroxy-2-oxo-5,6,7,8,9,10-hexahydro-2H-cycloocta[b]pyran-3-yl)-methyl]-phenylcarbamoyl}-methyl)-carbamic acid tert-butyl ester]: half-maximal inhibition (IC50) required 29.8 µM.

`O=C(Cc1ccccc1)Nc1cccc(C(c2c(O)c3c(oc2=O)CCCCCC3)C2CC2)c1` (configuration not stated) [N-{3-[Cyclopropyl-(4-hydroxy-2-oxo-5,6,7,8,9,10-hexahydro-2H-cycloocta[b]pyran-3-yl)-methyl]-phenyl}-2-phenyl-acetamide] came in with an IC50 of 17.3 µM.

As to `O=C(Nc1cccc(C(c2c(O)c3c(oc2=O)CCCCCC3)C2CC2)c1)c1ccc(F)cc1` (configuration not stated) [N-{3-[Cyclopropyl-(4-hydroxy-2-oxo-5,6,7,8,9,10-hexahydro-2H-cycloocta[b]pyran-3-yl)-methyl]-phenyl}-4-fluoro-benzamide], the IC50 came out at 21.9 µM.

In the case of `O=C(Nc1cccc(C(c2c(O)c3c(oc2=O)CCCCCC3)C2CC2)c1)c1ccccc1` (configuration not stated) [N-{3-[Cyclopropyl-(4-hydroxy-2-oxo-5,6,7,8,9,10-hexahydro-2H-cycloocta[b]pyran-3-yl)-methyl]-phenyl}-benzamide], half-maximal inhibition (IC50) was put at 23.5 µM.

For `CCCC(=O)Nc1cccc(C(c2c(O)c3c(oc2=O)CCCCCC3)C2CC2)c1` (configuration not stated) [N-{3-[Cyclopropyl-(4-hydroxy-2-oxo-5,6,7,8,9,10-hexahydro-2H-cycloocta[b]pyran-3-yl)-methyl]-phenyl}-butyramide], the IC50 came to 35.1 µM.

As to `CC(C)(C)OC(=O)N[C@@H](Cc1cnc[nH]1)C(=O)Nc1cccc(C(c2c(O)c3c(oc2=O)CCCCCC3)C2CC2)c1` (stereo partly drawn) [[(S)-1-{3-[Cyclopropyl-(4-hydroxy-2-oxo-5,6,7,8,9,10-hexahydro-2H-cycloocta[b]pyran-3-yl)-methyl]-phenylcarbamoyl}-2-(1H-imidazol-4-yl)-ethyl]-carbamic acid tert-butyl ester], the IC50 worked out at 45.3 µM.

For the next test, the target named is Human immunodeficiency virus type 1 protease (Human immunodeficiency virus 1, UniProt Q72874). As to the kind of experiment: Inhibitory activity against HIV-I protease.
In turn, `O=c1oc2c(c(O)c1C(c1ccccc1)C1CC1)CCCCCC2CC1CC1` (configuration not stated) [10-Cyclopropylmethyl-3-(cyclopropyl-phenyl-methyl)-4-hydroxy-5,6,7,8,9,10-hexahydro-cycloocta[b]pyran-2-one] registered a Ki of 0.024 µM.

As for `O=c1oc2c(c(O)c1C(c1ccccc1)C1CC1)CCCCCCC2CC1CC1` (configuration not stated) [11-Cyclopropylmethyl-3-(cyclopropyl-phenyl-methyl)-4-hydroxy-6,7,8,9,10,11-hexahydro-5H-cyclonona[b]pyran-2-one], the affinity corresponds to a Ki of 0.024 µM.
